Data reported in patent US5599793A, “Antithromobotic agents” (Eli Lilly and Company, priority 1995, dated 1997).

Tests used:
[1] = test system: Human plasma; assay: Human plasma anticoagulation, activated partial thromboplastin time (APTT); type: biochemical; details: concentration required to double the APTT, linear extrapolation
Protocol: (§1) Dog plasma and rat plasma is obtained from conscious mixed-breed hounds (either sex, Hazelton-LRE, Kalamazoo, Mich., U.S.A.) or from anesthetized male Sprague-Dawley rats (Harlan Sprague-Dawley, Inc., Indianapolis, Ind., U.S.A.) by venipuncture into 3.8 percent citrate. Fibrinogen is prepared from in-date ACD human blood as the fraction I-2 according to previous procedures and specifications. Smith, Biochem. J., 185, 1-11 (1980); and Smith, et al., Biochemistry, 11, 2958-2967 (1972). Human fibrinogen is also purchased as 98 percent pure/plasmin free from American Diagnostica, Greenwich, Conn. Coagulation reagents ACTIN, Thromboplastin, and Human plasma are from Baxter Healthcare Corp., Dade Division, Miami, Fla. Bovine thrombin from Parke-Davis ([…], Mich.) is used for coagulation assays in plasma.
(§2) Coagulation assay procedures are as previously described. Smith, et al., Thrombosis Research, 50, 163-174 (1988). A CoAScreener coagulation instrument (American LABor, Inc.) is used for all coagulation assay measurements. The prothrombin time (PT) is measured by adding 0.05 mL saline and 0.05 mL Thromboplastin-C reagent to 0.05 mL test plasma. The activated partial thromboplastin time (APTT) is measured by incubation of 0.05 mL test plasma with 0.05 mL Actin reagent for 120 seconds followed by 0.05 mL CaCl2 (0.02M). The thrombin time (TT) is measured by adding 0.05 mL saline and 0.05 mL thrombin (10 NIH units/mL) to 0.05 mL test plasma. The compounds of formula I are added to human or animal plasma over a wide range of concentrations to determine prolongation effects on the APTT, PT, and TT assays. Linear extrapolations are performed to estimate the concentrations required to double the clotting time for each assay.

[2] = target: Human Thrombin (Homo sapiens, UniProt P00734); assay: Inhibition of amidase activity of thrombin (Kass); type: biochemical; details: apparent association constant, mean over a range of concentrations
Protocol: (§3) The assay is carried out by mixing 50 μL buffer (0.03M Tris, 0.15M NaCl, pH 7.4) with 25 μL of bovine thrombin or human thrombin solution (0.21 mg/mL of thrombostat bovine thrombin, Parke-Davis, or purified human thrombin, Enzyme Research Laboratories, South Bend, Ind., at about 8 NIH units/mL, in the same buffer) and 25 μL of test compound in a solvent (in 50% aqueous methanol, v:v). The 150 μL of an aqueous solution of the chromogenic substrate (at 0.25 mg/mL) are added and the rates of hydrolysis of the substrate are measured by monitoring the reactions at 405 nm for the release of p-nitroaniline. Standard curves are constructed by plotting free thrombin concentration against hydrolysis rate. The hydrolysis rates observed with test compounds are then converted to "free thrombin" values in the respective assays by use of the standard curves. The bound thrombin (bound to test compound) is calculated by subtracting the amount of free thrombin observed in each assay from the known initial amount of thrombin used in the assay. The amount of free inhibitor in each assay is calculated by subtracting the number of moles of bound thrombin from the number of moles of added inhibitor (test compound).
The Kass value is the hypothetical equilibrium constant for the reaction between thrombin and the test compound (I). [drawing 54]
(§4) Kass is calculated for a range of concentrations of test compounds and the mean value is reported in units of liter per mole.

[3] = target: T1, Plasmin (Homo sapiens, UniProt P00747); assay: Serine protease selectivity, chromogenic substrate (Kass), plasmin; type: biochemical; details: substrate H-D-Val-Leu-Lys-p-nitroanilide
T1 construct: Human plasmin is purchased; purchased Boehringer Mannheim, Indianapolis, Ind
Protocol: as §3, §4
(§5) By substantially following the procedures described above for human thrombin, and using other human blood coagulation system serine proteases and proteases of the fibrinolytic system with the appropriate chromogenic substrates, identified below, selectivity of the compounds of the present invention with respect to the coagulation factor serine proteases and with respect to the fibrinolytic system serine proteases are evaluated as well as their substantial lack of interference with serine proteases of the fibrinolytic system. Thrombin inhibitors preferably should spare fibrinolysis induced by urokinase, tissue plasminogen activator (t-PA) and streptokinase. This would be important to the therapeutic use of such agents as an adjunct to streptokinase, t-PA or urokinase thrombolytic therapy and to the use of such agents as an endogenous fibrinolysis-sparing (with respect to t-PA and urokinase) antithrombotic agent. In addition to the lack of interference with the amidase activity of the fibrinolytic proteases, such fibrinolytic system sparing can be studied by the use of human plasma clots and their lysis by the respective fibrinolytic plasminogen activators.
(§6) Human plasmin is purchased from Boehringer Mannheim, Indianapolis, Ind.; nt-PA is purchased as single chain activity reference from American Diagnostica, Greenwich, Conn.; modified-t-PA6 (mt-PA6) is prepared at Eli Lilly and Company by procedure known in the art (See, Burck, et al., J. Biol. Chem., 265, […] (1990). Plasmin chromogenic substrate H-D-Val-Leu-Lys-p-nitroanilide and tissue plasminogen activator (t-PA) substrate H-D-Ile-Pro-Arg-p-nitroanilide are purchased from Kabi Vitrum, Stockholm, Sweden.

[4] = target: T2, Trypsin (Bos taurus, UniProt P00760); assay: Serine protease selectivity, chromogenic substrate (Kass), trypsin; type: biochemical, bovine; details: substrate N-Benzoyl-Phe-Val-Arg-p-nitroanilide
T2 construct: Bovine trypsin is purchased; purchased Worthington Biochemicals, Freehold, N.J
T2 sequence (P00760 24-246): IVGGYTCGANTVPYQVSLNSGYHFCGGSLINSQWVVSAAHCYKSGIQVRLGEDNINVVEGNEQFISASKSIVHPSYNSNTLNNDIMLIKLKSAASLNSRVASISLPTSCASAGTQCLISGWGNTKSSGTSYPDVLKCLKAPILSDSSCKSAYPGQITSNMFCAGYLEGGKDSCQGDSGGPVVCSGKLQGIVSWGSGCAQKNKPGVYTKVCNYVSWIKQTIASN
Protocol: as §3, §4, §5
(§7) Human factors X, Xa, IXa, XIa, and XIIa are purchased from Enzyme Research Laboratories, South Bend, Ind.; human urokinase from Leo Pharmaceuticals, Denmark; and recombinant activated Protein C (aPC) is prepared at Eli Lilly and Co. substantially according to U.S. Pat. No. 4,981,952. Chromogenic substrates: N-Benzoyl-Ile-Glu-Gly-Arg-p-nitroanilide (for factor Xa); N-Cbz-D-Arg-Gly-Arg-p-nitroanilide (for factor IXa assay as the factor Xa substrate); Pyroglutamyl-Pro-Arg-p-nitroanilide (for Factor XIa and for aPC); H-D-Pro-Phe-Arg-p-nitroanilide (for factor XIIa); and Pyroglutamyl-Gly-Arg-p-nitroanilide (for urokinase); are purchased from KabiVitrum, Stockholm, Sweden, or from Midwest Biotech, Fishers, Ind. Bovine trypsin is purchased from Worthington Biochemicals, Freehold, N.J., and human plasma kallikrein from Kabi Vitrum, Stockholm, Sweden. Chromogenic substrate H-D-Pro-Phe-Arg-p-nitroanilide for plasma kallikrein is purchased from Kabi Vitrum, Stockholm, Sweden. N-Benzoyl-Phe-Val-Arg-p-nitroanilide, the substrate for human thrombin and for trypsin, is synthesized according to procedures described above for the compounds of the present invention, using known methods of peptide coupling from commercially available reactants or purchased from Midwest Biotech, Fishers, Ind.

[5] = target: T3, factor Xa (Homo sapiens, UniProt P00742); assay: Serine protease selectivity, chromogenic substrate (Kass), factor Xa; type: biochemical; details: substrate N-Benzoyl-Ile-Glu-Gly-Arg-p-nitroanilide
T3 construct: Human factors X, Xa, IXa, XIa, and XIIa are purchased; purchased Enzyme Research Laboratories, South Bend, Ind
Protocol: as §3, §4, §5, §7

[6] = test system: Human plasma; assay: Human plasma anticoagulation, prothrombin time (PT); type: biochemical; details: concentration required to double the PT, linear extrapolation
Protocol: as §1, §2

[7] = test system: Human plasma; assay: Human plasma anticoagulation, thrombin time (TT); type: biochemical; details: concentration required to double the thrombin time, linear extrapolation
Protocol: as §1, §2

[8] = target: T4, t-PA (Homo sapiens, UniProt P00750); assay: Serine protease selectivity, chromogenic substrate (Kass), t-PA; type: biochemical; details: substrate H-D-Ile-Pro-Arg-p-nitroanilide
T4 construct: purchased American Diagnostica, Greenwich, Conn
Protocol: as §3, §4, §5, §6

T4 sequence (P00750 36-562): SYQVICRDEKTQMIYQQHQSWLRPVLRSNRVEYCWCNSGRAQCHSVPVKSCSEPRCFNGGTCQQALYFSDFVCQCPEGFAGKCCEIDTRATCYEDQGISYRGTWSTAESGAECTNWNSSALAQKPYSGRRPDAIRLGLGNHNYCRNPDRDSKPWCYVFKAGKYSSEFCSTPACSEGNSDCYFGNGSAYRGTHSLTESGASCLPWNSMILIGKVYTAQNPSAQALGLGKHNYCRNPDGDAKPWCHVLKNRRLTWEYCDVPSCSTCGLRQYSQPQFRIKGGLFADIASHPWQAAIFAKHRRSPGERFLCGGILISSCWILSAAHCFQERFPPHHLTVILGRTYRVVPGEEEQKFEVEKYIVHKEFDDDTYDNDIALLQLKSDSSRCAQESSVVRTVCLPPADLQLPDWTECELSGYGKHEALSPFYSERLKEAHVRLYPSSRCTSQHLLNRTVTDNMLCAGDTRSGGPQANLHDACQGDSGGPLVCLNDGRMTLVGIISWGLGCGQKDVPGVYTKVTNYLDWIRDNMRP
T1 sequence (P00747 581-810 limits assumed): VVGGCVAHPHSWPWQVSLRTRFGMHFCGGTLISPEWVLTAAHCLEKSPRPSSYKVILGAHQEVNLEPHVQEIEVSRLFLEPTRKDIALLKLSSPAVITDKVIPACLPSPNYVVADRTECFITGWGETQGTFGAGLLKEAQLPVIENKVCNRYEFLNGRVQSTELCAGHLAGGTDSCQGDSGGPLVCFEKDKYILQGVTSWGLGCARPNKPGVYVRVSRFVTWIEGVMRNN
T1 sequence (P00747 97-580 partner limits assumed): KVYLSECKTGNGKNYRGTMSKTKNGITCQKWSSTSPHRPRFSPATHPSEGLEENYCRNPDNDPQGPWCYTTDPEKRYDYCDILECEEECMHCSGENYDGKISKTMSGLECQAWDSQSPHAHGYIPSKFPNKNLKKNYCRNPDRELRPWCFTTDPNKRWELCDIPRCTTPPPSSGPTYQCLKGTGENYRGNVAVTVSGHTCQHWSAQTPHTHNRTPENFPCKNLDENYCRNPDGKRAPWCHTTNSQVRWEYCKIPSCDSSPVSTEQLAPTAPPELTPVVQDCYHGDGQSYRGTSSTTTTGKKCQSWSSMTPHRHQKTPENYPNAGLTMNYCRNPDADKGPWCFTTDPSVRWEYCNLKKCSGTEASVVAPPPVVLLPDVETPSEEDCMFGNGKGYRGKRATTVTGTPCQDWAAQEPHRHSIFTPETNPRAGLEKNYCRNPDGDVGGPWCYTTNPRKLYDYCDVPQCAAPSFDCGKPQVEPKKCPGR
T3 sequence (P00742 235-488 limits assumed): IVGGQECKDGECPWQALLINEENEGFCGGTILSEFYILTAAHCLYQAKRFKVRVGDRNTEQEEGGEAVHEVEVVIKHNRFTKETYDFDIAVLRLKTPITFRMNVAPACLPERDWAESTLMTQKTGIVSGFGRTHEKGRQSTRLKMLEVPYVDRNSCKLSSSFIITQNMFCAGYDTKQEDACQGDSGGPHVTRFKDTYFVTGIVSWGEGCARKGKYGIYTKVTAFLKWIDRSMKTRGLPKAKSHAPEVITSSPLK
T3 sequence (P00742 41-179 partner limits assumed): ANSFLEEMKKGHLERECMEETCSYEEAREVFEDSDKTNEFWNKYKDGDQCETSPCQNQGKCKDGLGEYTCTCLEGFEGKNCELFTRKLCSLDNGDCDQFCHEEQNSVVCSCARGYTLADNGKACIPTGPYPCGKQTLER

| Structure (SMILES) | 2x Clotting time, APTT [1] | Enzyme Kass, Human Thrombin [2] | Enzyme Kass, Plasmin [3] | Enzyme Kass, Trypsin [4] | Enzyme Kass, Xa [5] | 2x Clotting time, PT [6] | 2x Clotting time, TT [7] | Enzyme Kass, t-PA [8] | 2x Clotting time, APTT ([1]; HCl) | Enzyme Kass, Human Thrombin ([2]; HCl) | Enzyme Kass, Plasmin ([3]; HCl) | Enzyme Kass, Trypsin ([4]; HCl) | Enzyme Kass, Xa ([5]; HCl) | 2x Clotting time, PT ([6]; HCl) | 2x Clotting time, TT ([7]; HCl) | Enzyme Kass, t-PA ([8]; HCl) |
| --- | --- | --- | --- | --- | --- | --- | --- | --- | --- | --- | --- | --- | --- | --- | --- | --- |
| Cl.N=C(N)NCCC[C@@H](C=O)NC(=O)[C@@H]1C[C@@H]2CCCC[C@@H]2N1C(=O)[C@@H](Cc1ccccc1)NCC(=O)O (relative stereo) [Example 24, HOOCCH2 -D-Phe-cis-Ohi-ArgH.HCl] | 490 ng/mL | 1,160 L/mol × 10^6 | 16.3 L/mol × 10^6 | 424 L/mol × 10^6 | 1.70 L/mol × 10^6 | 727 ng/mL | 11 ng/mL | 0.075 L/mol × 10^6 | – | – | – | – | – | – | – | – |
| Cl.Cl.NC(N)=NCCCC(C=O)NC(=O)C1CC(Oc2ccccc2)CN1C(=O)C1NCCC2CCCCC21 [Example 14, L-1-Piq-Pro(4-cis-phenoxy)-ArgH.2 HCl] | 9,000 ng/mL | 8.7 L/mol × 10^6 | 0.34 L/mol × 10^6 | 6.2 L/mol × 10^6 | 0.48 L/mol × 10^6 | 18,000 ng/mL | 460 ng/mL | 0.002 L/mol × 10^6 | – | – | – | – | – | – | – | – |
| Cl.Cl.N=C(N)NCCCC(C=O)NC(=O)C1CC2CCCCC2N1C(=O)C1NCCC2CCCCC21 [Example 21, L-1-cis-Piq-cis-Ohi-ArgH.2 HCl] | – | – | – | – | – | – | – | – | 16,234 ng/mL | 3.1 L/mol × 10^6 | 0.20 L/mol × 10^6 | 3.6 L/mol × 10^6 | 0.03 L/mol × 10^6 | 30,776 ng/mL | 1,199 ng/mL | 0.001 L/mol × 10^6 |
